Source: US20250296971A1, “GASTRIC INHIBITORY PEPTIDE RECEPTOR LIGANDS” (priority 2021, published 2025)
*1 amine or outer side, *2 acyl side, *3 side chain or, on linkers, in order; H or OH if unused. Where a SMILES comes first, the peptide text is derived from it. Bridges are numbered along the chain shown (N, C = ends). [ ]: non-standard residue; d: D form. The star is where a group is joined. NH(1-deoxy-D-glucityl) = OC[C@@H](O)[C@@H](O)[C@H](O)[C@@H](O)CN*; DOTA = O=C(O)CN1CCN(CC(=O)O)CCN(CC(=O)*)CCN(CC(=O)O)CC1; Trp(5-Cl) = N[C@@H](Cc1c[nH]c2ccc(Cl)cc12)C(=O)O; Pyridine(2,6-diCH2) = c1cc(C[*:1])nc(C[*:2])c1; Pro(4R-NH2) = N[C@H]1CN[C@H](C(=O)O)C1; Glutaryl = O=C(CCCC(=O)[*:2])[*:1]; X1 = O=C(CN1CCC(N[*:1])CC1)[*:2]; Api = NC1(C(=O)O)CCNCC1

What was measured:
Mouse GIPR = target: T1, Mouse GIPR (Mus musculus, UniProt Q0P543); experiment: Radioligand binding assay, mouse GIPR; settings: 111In-labeled compound, 6 h, 37° C., read-out: pKD Category (converted)
T1 construct: host or cells: CHO-VGT
T1 sequence (Q0P543 19-460): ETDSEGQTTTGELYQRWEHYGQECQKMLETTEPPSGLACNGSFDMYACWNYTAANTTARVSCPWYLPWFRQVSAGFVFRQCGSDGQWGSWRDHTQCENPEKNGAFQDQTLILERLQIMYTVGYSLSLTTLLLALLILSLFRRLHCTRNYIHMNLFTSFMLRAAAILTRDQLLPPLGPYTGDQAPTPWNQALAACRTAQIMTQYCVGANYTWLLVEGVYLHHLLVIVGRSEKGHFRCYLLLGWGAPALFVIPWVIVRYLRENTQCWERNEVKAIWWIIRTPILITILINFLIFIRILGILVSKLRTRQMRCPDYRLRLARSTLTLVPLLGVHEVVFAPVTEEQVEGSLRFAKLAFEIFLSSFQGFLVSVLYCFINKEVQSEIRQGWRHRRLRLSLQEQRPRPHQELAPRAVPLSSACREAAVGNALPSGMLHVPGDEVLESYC
Experimental: (§1) In order to assess the affinity of ^111In-labeled compounds to the GIPR receptor of different species, a radioligand binding assay was established.
(§2) CHO-K1 cells (GenScript Biotech, #M00486) were stably transfected with the human GIPR. CHO-K1-hGIPR cells were cultured in Ham's F12 medium (Sigma-Aldrich, #N4888) including 10% fetal calf serum (FCS), 2 mM L-glutamine, 100 U/mL penicillin, 100 µg/mL streptomycin, 200 µg/mL Zeocin and 100 µg/mL HygromycinB. To evaluate the species cross-reactivity, CHO-VGT cells were transfected with the human, dog, rat and mouse GIPR (Inscreenex GmbH), which were cultured in DMEM/Ham's F12 Medium 1:1 (Biochrom, #F485) including 5% fetal calf serum (FCS), 2 mM L-glutamine, 100 U/mL penicillin and 100 μg/mL streptomycin. Cells were detached with Accutase (Biolegend, #BLD-423201) and counted using a particle counter (CASY Model TT; Schärfe Systems). Cell concentrations were adjusted to 3×10^5 mL^−1, and 1.000 μL of the suspension per well were dispensed into flat-clear-bottom 24 well plates.
(§3) Approximately 24 hours after re-seeding, the medium was aspirated and the cells were washed once with 700 μL assay medium (Ham's medium with 20 mM HEPES). […]
(§4) At the end of incubation time, cells were washed and subsequently harvested in 300 μL RIPA buffer containing PIC. Radioactivity of the cell lysate of each well was counted using a gamma counter (Perkin Elmer). […]

Rat GIPR = target: T2, Rat GIPR (Rattus norvegicus, UniProt P43219); experiment: Radioligand binding assay, rat GIPR; settings: 111In-labeled compound, 6 h, 37° C., read-out: pKD Category (converted)
T2 construct: host or cells: CHO-VGT
T2 sequence (P43219 19-455): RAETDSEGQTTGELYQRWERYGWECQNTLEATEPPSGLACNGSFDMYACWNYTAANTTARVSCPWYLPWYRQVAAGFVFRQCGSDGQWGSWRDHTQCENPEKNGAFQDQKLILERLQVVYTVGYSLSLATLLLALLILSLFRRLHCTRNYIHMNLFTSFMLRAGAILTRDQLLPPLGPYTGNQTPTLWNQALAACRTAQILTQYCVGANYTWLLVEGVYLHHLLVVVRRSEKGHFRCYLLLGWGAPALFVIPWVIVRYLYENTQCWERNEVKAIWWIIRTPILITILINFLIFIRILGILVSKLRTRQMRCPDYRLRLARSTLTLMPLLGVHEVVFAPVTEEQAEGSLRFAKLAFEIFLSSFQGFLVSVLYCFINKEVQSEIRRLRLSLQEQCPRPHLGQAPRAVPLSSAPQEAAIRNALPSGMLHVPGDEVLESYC
Experimental: as §1, §2, §3, §4

[1] = Plasma stability assay, mouse plasma; assay type: in vitro ADME; settings: 37° C., % intact compound remaining after 4 h or 24 h
Outline: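 K2EDTA mouse or human plasma spiked with compound from 0.5 mM DMSO stock, incubated at 37 °C for 0, 4 and 24 h in duplicate. Proteins precipitated with acetonitrile/1% TFA, internal standard added; recovery and carry-over evaluated.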

Dog GIPR = target: T3, Dog GIPR (Canis lupus familiaris, UniProt A0A8I3MPG1); experiment: Radioligand binding assay, dog GIPR; settings: 111In-labeled compound, 6 h, 37° C., read-out: pKD Category (converted)
T3 construct: host or cells: CHO-VGT
T3 sequence (A0A8I3MPG1 24-449): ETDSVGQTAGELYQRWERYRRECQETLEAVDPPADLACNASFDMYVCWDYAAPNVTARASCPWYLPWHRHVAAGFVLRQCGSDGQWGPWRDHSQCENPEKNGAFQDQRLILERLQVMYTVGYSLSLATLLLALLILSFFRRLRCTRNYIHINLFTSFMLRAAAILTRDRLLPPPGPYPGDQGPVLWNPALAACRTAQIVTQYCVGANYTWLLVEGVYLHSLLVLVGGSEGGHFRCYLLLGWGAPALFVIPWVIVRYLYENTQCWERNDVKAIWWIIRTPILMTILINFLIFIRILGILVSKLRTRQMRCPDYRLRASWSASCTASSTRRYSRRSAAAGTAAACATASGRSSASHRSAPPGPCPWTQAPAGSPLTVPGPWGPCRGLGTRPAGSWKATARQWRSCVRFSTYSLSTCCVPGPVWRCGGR
Experimental: as §1, §2, §3, §4

SMILES: CC[C@H](C)[C@@H]1NC(=O)[C@H](CC(C)C)NC(=O)C2(CCN(C(=O)CN3CCN(CC(=O)O)CCN(CC(=O)O)CCN(CC(=O)O)CC3)CC2)NC(=O)[C@@H](NC(=O)[C@@H](CC(C)C)NC(=O)[C@H](CCC(=O)O)NC(=O)[C@@H]2C[C@@H](N)CN2C(=O)[C@H](Cc2c[nH]c3ccc(Cl)cc23)NC(=O)[C@H](Cc2c[nH]c3ccccc23)NC(=O)[C@H](CC(=O)O)NC(=O)CCCC(=O)NC[C@H](O)[C@@H](O)[C@H](O)[C@H](O)CO)CSCc2cccc(n2)CSC[C@@H](C(=O)NC2CCN(CC(=O)N[C@H](CCC(=O)NC[C@H](O)[C@@H](O)[C@H](O)[C@H](O)CO)C(N)=O)CC2)NC1=O [GIP-001, AGLU-Glutar-Asp-Trp-5Clw-Tap-Glu-leu-[Cys(2Lut)-Apc(DOTA)-Leu-Ile-Cys]-APAc-glu(AGLU)-NH2] ({NH(1-deoxy-D-glucityl)-Glutaryl}-DW[Trp(5-Cl)][Pro(4R-NH2)]E[dL]C[Api](DOTA)LIC[X1][dE](NH(1-deoxy-D-glucityl))-NH2; linker 7-11 via Pyridine(2,6-diCH2))
- Kd (Mouse GIPR): > 1 nM
- Kd (Rat GIPR): 0.316 to 1 nM
- Mouse plasma stability category [1]: A (>80% intact after 24 hours)
- Kd (Dog GIPR): < 0.316 nM
